Each block holds one molecule with its values, some of them ahead of it.
Legend:
[1] = freely diffusing deuterated compound
Text: In this case, the pharmacokinetics in a non-obvious way depends on a dose used (in particular, an excess of the renal reabsorption capacity for a particular compound can lead to its accelerated excretion). At that, the dose is limited by the toxicity and solubility of this compound.

[2] = up to the replacement of 10-30% of water in the body; cited from earlier work
[3] = Text: An important property of the deuterated component (sarcosine) of the diagnostic drug of the invention is sufficient resistance to metabolic exchange of deuterium for protium in vivo. This exchange lowers the concentration of the deuterium label, while simultaneously increasing the background signal of heavy water (DOH), which is evenly distributed throughout the body due to rapid diffusion. This process leads to a decrease in the contrast of the image, and also prevents quantitive evaluation of deuterated component concentration by comparison with the intensity of natural DOH signal.
[4] = Solubility in water for injection; assay type: physicochemical; settings: limits the dose to 10 mg in 1.0 ml
4T1 breast carcinoma = test: Deuterium tomography (2H MRI) of mice with 4T1 breast carcinoma after injection of the deuterated compound; settings: 10 mg intraperitoneally in 1.0 ml water, 20 g mouse
Method: The deuterium tomogram was recorded using FLASH (Fast low angle shot) pulse sequence. The excitation frequency was determined from the ^2H NMR spectrum and was on the instrument used: sfo1≈46.17452 MHz, rectangular excitation pulse 2560 Hz wide and 11.2 dB power, deflection angle FA=30°, repetition time TR=11.8 ms, echo time TE=4.07 ms, scan region10 cm×10 cm, scan matrix 50×50, slice thickness 3 cm, bandwidth 12500 Hz, total scan time 9 minutes 34 seconds (1024 accumulations).
In this example, experiments were performed on Balb/c mice grafted with 4T1 breast carcinoma (injection of 5×10^5 cells/60 μI under the left forepaw 12 days before the experiment). […] In 10 minutes after the injection, the animal was immobilized with isoflurane and placed on a heated bed in a tomograph.
An animal weighing 20 g was injected intraperitoneally with a solution:

[5] = high doses, prior art; cited from earlier work

SMILES: [2H]O[2H] [D2O]
selective accumulation in various organs and tissues of a subject [1]: do not show selective accumulation

SMILES: [2H]O [DOH]
toxicity [2]: non-toxic in very high doses

loss of deuterium in vivo (exchange of deuterium for protium) [3]: lose deuterium in vivovery quickly
SMILES: [2H]C([2H])([2H])[C@H](N)C(=O)O [L-alanine-3,3,3-d3]

solubility [4]: low solubility | accumulation in tumor tissue (4T1 breast carcinoma): do not accumulate in tumor tissue | accumulation selectivity in various organs (4T1 breast carcinoma): do not show accumulation selectivity
SMILES: [2H]c1c([2H])c([2H])c(C([2H])([2H])[C@H](N)C(=O)O)c([2H])c1[2H] [L-phenylalanine-β, β, 2,3,4,5,6-d7]

SMILES: [2H]C([2H])(N)C(=O)O [glycine-2,2-d2]
loss of deuterium in vivo (exchange of deuterium for protium) [3]: lose deuterium in vivovery quickly

SMILES: CNCC(=O)O [sarcosine]
LD50 [5]: > 5000 mg/kg
